Data reported in publication PMC8613358, “Next generation Glucose-1-phosphate thymidylyltransferase (RmlA) inhibitors: An extended SAR study to direct future design” (Bioorganic & Medicinal Chemistry, 2021).
≈ marks a conversion by molar mass, not a printed value. Entries after “also recorded” stand apart in the source; their conditions may differ. Counter-ions that a name gives are not always drawn.

Legend:
P. aeruginosa RmlA = molecular target: T1, P. aeruginosa RmlA (Pseudomonas aeruginosa, UniProt Q9HU22); assay: In vitro RmlA inhibition assay (BIOMOL Green phosphate detection); assay type: biochemical; conditions: for inhibition at 10 µM: 10 μM inhibitor, 30 min, room temperature; for inhibition at 10 µM / IC50: 15 nM recombinant RmlA, 5 μM dTTP, 5 μM G-1-P; for LE (Ligand efficiency): LE = pIC50/number of heavy atoms; for LLE (Lipophilic ligand efficiency): LLE = pIC50 – cLogP; for IC50: ± SD, n = 3; for increase in potency compared to 1b: ratio of IC50 values vs 1b
T1 construct: made in house
T1 sequence (Q9HU22 1-293): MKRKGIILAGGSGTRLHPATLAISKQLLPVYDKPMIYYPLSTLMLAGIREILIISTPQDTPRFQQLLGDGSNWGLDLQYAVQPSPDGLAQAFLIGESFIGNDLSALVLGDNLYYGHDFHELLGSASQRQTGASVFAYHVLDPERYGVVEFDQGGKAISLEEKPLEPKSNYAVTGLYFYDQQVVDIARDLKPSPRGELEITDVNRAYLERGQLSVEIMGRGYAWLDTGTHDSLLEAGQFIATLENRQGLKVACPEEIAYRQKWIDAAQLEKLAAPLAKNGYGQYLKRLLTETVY
Experimental: Each assay was performed in a 101 μL reaction volume containing 50 mM Tris (pH 7.4), 5 mM MgCl2, 1 mM dithiothreitol, 0.1 mM EDTA (pH 8.0), 0.1 mM EGTA (pH 8.0), 0.05% NP-40, 15 nM recombinant RmlA, 0.8 μg/ml pyrophosphatase, 5 μM dTTP and 5 μM G-1-P. The inhibitor was added to the plate (20 μL) followed by RmlA (30 μL). The reaction was initiated with the addition of dTTP (25 μL), G-1-P (25 μL) and pyrophosphatase (1 μL) as a mixture in one charge (51 μL total) and the assay was allowed to run for 30 min at room temperature. The reaction was quenched by addition of BIOMOL™ Green reagent (100 μL) and was allowed to develop before the absorbance of each well was measured at 620 nm.

M.tuberculosis (H37Rv) = test system: M.tuberculosis (H37Rv); design: method as in PMID 23138692; conditions: cited from earlier work

Compound	melting point	inhibition at 10 µM (P. aeruginosa RmlA)	LE (Ligand efficiency) (P. aeruginosa RmlA)	LLE (Lipophilic ligand efficiency) (P. aeruginosa RmlA)	IC50 (P. aeruginosa RmlA)	activity against P. aeruginosa RmlA (in words) (P. aeruginosa RmlA)	increase in potency compared to 1b (P. aeruginosa RmlA)	MIC100 (M. tuberculosis) (M.tuberculosis (H37Rv))
CNCCCNc1c(N(C)S(=O)(=O)c2ccccc2)c(=O)[nH]c(=O)n1Cc1ccc(Br)cc1 (as salt: TFA) [Compound 1b, N-(1-(4-bromobenzyl)-6-((3-(methylamino)propyl)amino)-2,4-dioxo-1,2,3,4-tetrahydropyrimidin-5-yl)-N-methylbenzenesulfonamide]	294 to 297 °C	–	–	–	–	–	–	–
CNCCNc1c(N(C)S(=O)(=O)c2ccccc2)c(=O)[nH]c(=O)n1Cc1ccc(Br)cc1 (as salt: TFA) [Compound 1c, N-(1-(4-bromobenzyl)-6-((2-(methylamino)ethyl)amino)-2,4-dioxo-1,2,3,4-tetrahydropyrimidin-5-yl)-N-methylbenzenesulfonamide]	283 to 286 °C	–	–	–	–	–	–	–
CN(c1c(N)n(Cc2ccc(Br)cc2)c(=O)[nH]c1=O)S(=O)(=O)c1ccccc1 [Compound 1a]	–	100%	0.37	5.20	34 ± 2 nM	–	–	–
CNCCCNc1c(N(C)S(=O)(=O)c2ccccc2)c(=O)[nH]c(=O)n1Cc1ccc(Br)cc1 [Compound 1b, N-(1-(4-bromobenzyl)-6-((3-(methylamino)propyl)amino)-2,4-dioxo-1,2,3,4-tetrahydropyrimidin-5-yl)-N-methylbenzenesulfonamide]	–	100%	0.30	4.30	860 ± 96 nM	–	–	–
CNCCNc1c(N(C)S(=O)(=O)c2ccccc2)c(=O)[nH]c(=O)n1Cc1ccc(Br)cc1 [Compound 1c, N-(1-(4-bromobenzyl)-6-((2-(methylamino)ethyl)amino)-2,4-dioxo-1,2,3,4-tetrahydropyrimidin-5-yl)-N-methylbenzenesulfonamide]	–	0%	–	–	–	complete loss of activity; also recorded: lost the inhibitory activity	–	–
CN(c1c(NCCCCN)n(Cc2ccc(Br)cc2)c(=O)[nH]c1=O)S(=O)(=O)c1ccccc1 [Compound 1d, N-(6-((4-aminobutyl)amino)-1-(4-bromobenzyl)-2,4-dioxo-1,2,3,4-tetrahydropyrimidin-5-yl)-N-methylbenzenesulfonamide]	311 to 313 °C	100%	0.28	4.40	303 ± 26 nM	–	~2.5 fold	–
CN(c1c(NCCCCCN)n(Cc2ccc(Br)cc2)c(=O)[nH]c1=O)S(=O)(=O)c1ccccc1 [Compound 1e, N-(6-((5-aminopentyl)amino)-1-(4-bromobenzyl)-2,4-dioxo-1,2,3,4-tetrahydropyrimidin-5-yl)-N-methylbenzenesulfonamide]	317 to 319 °C	100%	0.27	3.90	316 ± 23 nM	–	~2.5 fold	–
CN(c1c(NCCCn2cc(CN)nn2)n(Cc2ccccc2)c(=O)[nH]c1=O)S(=O)(=O)c1ccccc1 [Compound 1f]	295 to 297 °C	100%	0.21	4.50	2470 ± 20 nM	–	–	–
CN(c1c(N)n(Cc2ccccc2)c(=O)[nH]c1=O)S(=O)(=O)c1ccccc1 [Compound 8a]	–	–	–	–	–	–	–	100 µg/mL (≈ 259 µM)
